What was measured:
bone resorption [1] = experiment: Inhibition of bone resorption (45Ca release from prelabeled rat embryonic limb bones stimulated with IL-1β); assay type: cell-based, rat (SD); details: 25 μg/ml, 45Ca prelabeled rat embryonic limb bone, 72 hours culture
Protocol: ^45 Ca prelabeled rat embryonic limbs for the measurement of bone resorption were prepared by the method of Raisz (J. Clin. Invest. 44, 103 (1965)). Briefly, 17th day pregnant SD rats were injected subcutaneously with 200 μCi of calcium-45 as calcium chloride. Two days later, the rats were killed, the embryos removed and washed with sterilized phosphated buffer solution (PBS). The forelimbs were dissected free of muscle and the cartilagious ends were cut off. The bone shaft was cultured with BGJb medium containing 20% bovine serum albumin (BSA).
The effect of each example compound of this invention on bone resorption was assessed by the method of Tsuda et al (J. Bone & Mineral Res. 1, 207 (1986)) with slight modification. Briefly, the trimmed bone was precultured for 24 hours at 37 ° C. and in an atmosphere of 5% CO2 in air on a millipore filter immersed in 0.6 ml of BGJb medium containing 20% BSA. 24-well plate was used for culture. The bone on the filter was then transferred to a new well filled with the medium containing the compounds of this invention with or without […] and cultured for 72 hours. 0.3 ml of the supernatant was collected and used to determine the ^45 Ca release from the bone. The bone was immersed in 0.3 ml of 1 N HCl for not less than 90 minutes, and 10 ml of ACS II scintillator was added so as to measure the radioactivity in a liquid scintillation counter. The activity of bone resorption was expressed as percent of ^45 Ca release to supernatant from labeled bone (sum of the radioactivity of the bone and the medium). One bone was cultured on one well and each experimental group consisted of 5 or 6 bones derived from fetus in one pregnant rat. The activity of bone resorption was determined by the formula.
U: ^45 Ca release without adding IL-1β
C: ^45 Ca release by adding IL-1β
T: ^45 Ca release by adding IL-1β and example compound

bone resorption [2] = details: It has been reported; cited from earlier work

Structure (SMILES) | inhibition at 25 µg/mL (bone resorption [1]) [%] | inhibitory effect on bone resorption (in words) (bone resorption [2])
O=C(O)c1cc(Cl)cc2c1NC(c1ccccc1)CC2 (stereo not shown) [Compound 1, 6-Chloro-2-phenyl-1,2,3,4-tetrahydroquinoline-8-carboxylic acid] | 74 | 
O=C(O)c1cccc2c1NC(c1ccccc1)CC2 (stereo not shown) [Compound 2] | 113 | 
O=C(O)c1cc([N+](=O)[O-])cc2c1NCCC2 [Compound 3] | 100 | 
O=C(O)c1cc(Cl)cc2c1NCCC2 [Compound 4] | 76 | 
O=C(O)c1cccc2c1NCC(c1ccccc1)C2 (stereo not shown) [Compound 5] | 103 | 
O=C(O)c1cccc2c1NC(c1ccc(O)cc1)CC2 (stereo not shown) [Compound 6] | 70 | 
Cc1ccc(S(=O)(=O)Nc2cc3c(c(C(=O)O)c2)NC(c2ccccc2)CC3)cc1 (stereo not shown) [Compound 7, 2-Phenyl-6-p-toluenesulfonylamino-1,2,3,4-tetrahydroquinoline-8-carboxylic acid] | 80 | 
CC(C)Oc1ccc(C2CCc3cccc(C(=O)O)c3N2)cc1 (stereo not shown) [Compound 8, 2-(4-Isopropoxyphenyl)-1,2,3,4-tetrahydroquinoline-8-carboxylic acid] | 92 | 
CC(C)Oc1ccc2c(=O)c(-c3ccccc3)coc2c1 [Ipriflavone, 7-isopropoxyisoflavone, reference compound] | 58 | have inhibitory effect on bone resorption

Source: patent publication US5124325A, “Therapeutic agents of metabolic bone disease” (Kyorin Pharmaceutical Co., Ltd., priority 1989, dated 1992)
